Assay results: ChEMBL document CHEMBL3779856, “Synthesis and antiproliferative activity of 6,7-disubstituted-4-phenoxyquinoline derivatives bearing the 2-oxo-4-chloro-1,2-dihydroquinoline-3-carboxamide moiety” (Bioorg Med Chem Lett, 2016)

How the values were obtained:
cells [1] = details: Homo sapiens, MKN-45, 72 h
Description: Cytotoxicity against human MKN45 cells assessed as cell growth inhibition after 72 hrs by MTT assay

HT-29 [2] = test: cells; details: Homo sapiens, HT-29, 72 h
Description: Cytotoxicity against human HT-29 cells assessed as cell growth inhibition after 72 hrs by MTT assay

cells [3] = details: Homo sapiens, NCI-H460, 72 h
Description: Cytotoxicity against human H460 cells assessed as cell growth inhibition after 72 hrs by MTT assay

[4] = molecular target: Hepatocyte growth factor receptor (Homo sapiens, UniProt P08581); test: Inhibition of cMet (unknown origin) using poly (Glu, Tyr) 4:1 as substrate after 30 mins by HTRF assay
[5] = Cytotoxicity against human U87MG cells assessed as cell growth inhibition after 72 hrs by MTT assay; type: functional, cell-based, U-87MG ATCC; details: U-87 MG
A549 = test: Cytotoxicity against human A549 cells assessed as cell growth inhibition after 72 hrs by MTT assay; type: functional, cell-based; details: A549, 72 h
[6] = molecular target: Vascular endothelial growth factor receptor 2 (Homo sapiens, UniProt P35968); test: Inhibition of VEGFR-2 (unknown origin) using poly (Glu, Tyr) 4:1 as substrate after 30 mins by HTRF assay
[7] = molecular target: Epidermal growth factor receptor (Homo sapiens, UniProt P00533); test: Inhibition of EGFR (unknown origin) using poly (Glu, Tyr) 4:1 as substrate after 30 mins by HTRF assay
[8] = molecular target: Mast/stem cell growth factor receptor Kit (Homo sapiens, UniProt P10721); test: Inhibition of cKIT (unknown origin) using poly (Glu, Tyr) 4:1 as substrate after 30 mins by HTRF assay
[9] = Potency index, ratio of foretinib IC50 to compound IC50 for human H460 cells; type: functional
[10] = molecular target: T1, Receptor-type tyrosine-protein kinase FLT3 (Homo sapiens, UniProt P36888); test: Inhibition of FLT3 (unknown origin) using poly (Glu, Tyr) 4:1 as substrate after 30 mins by HTRF assay
T1 sequence (P36888 whole entry): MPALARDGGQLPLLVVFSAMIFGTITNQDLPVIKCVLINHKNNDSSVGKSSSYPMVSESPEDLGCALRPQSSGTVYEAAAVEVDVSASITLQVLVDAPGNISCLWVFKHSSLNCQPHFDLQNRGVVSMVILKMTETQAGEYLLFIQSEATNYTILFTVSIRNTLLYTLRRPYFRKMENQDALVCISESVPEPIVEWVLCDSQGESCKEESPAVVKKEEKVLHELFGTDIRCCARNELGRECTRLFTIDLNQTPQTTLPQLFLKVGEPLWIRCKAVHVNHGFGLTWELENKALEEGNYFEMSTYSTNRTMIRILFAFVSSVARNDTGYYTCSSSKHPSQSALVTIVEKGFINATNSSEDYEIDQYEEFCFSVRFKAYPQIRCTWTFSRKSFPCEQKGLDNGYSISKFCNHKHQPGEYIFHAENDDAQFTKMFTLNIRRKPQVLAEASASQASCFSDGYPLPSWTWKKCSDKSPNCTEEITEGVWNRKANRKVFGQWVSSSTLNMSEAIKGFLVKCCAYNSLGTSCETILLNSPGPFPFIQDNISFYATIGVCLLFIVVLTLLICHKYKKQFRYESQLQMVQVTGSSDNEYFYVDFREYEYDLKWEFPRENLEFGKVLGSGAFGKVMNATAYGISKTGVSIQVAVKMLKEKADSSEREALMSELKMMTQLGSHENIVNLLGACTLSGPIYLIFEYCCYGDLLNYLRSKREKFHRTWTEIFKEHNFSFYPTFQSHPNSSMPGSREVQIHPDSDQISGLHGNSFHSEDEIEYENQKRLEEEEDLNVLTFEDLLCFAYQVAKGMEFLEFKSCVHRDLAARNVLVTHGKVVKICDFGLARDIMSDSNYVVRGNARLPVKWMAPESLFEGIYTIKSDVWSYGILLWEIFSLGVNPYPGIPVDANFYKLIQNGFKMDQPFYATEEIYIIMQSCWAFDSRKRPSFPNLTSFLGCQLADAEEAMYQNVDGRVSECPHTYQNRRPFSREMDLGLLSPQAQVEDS

[11] = molecular target: Platelet-derived growth factor receptor beta (Homo sapiens, UniProt P09619); test: Inhibition of PDGFRbeta (unknown origin) using poly (Glu, Tyr) 4:1 as substrate after 30 mins by HTRF assay
HT-29 [12] = test: Potency index, ratio of foretinib IC50 to compound IC50 for human HT-29 cells; type: functional
U-87 MG = test: Potency index, ratio of foretinib IC50 to compound IC50 for human U87MG cells; type: functional, U-87MG ATCC

Sequence of Hepatocyte growth factor receptor (P08581 whole entry): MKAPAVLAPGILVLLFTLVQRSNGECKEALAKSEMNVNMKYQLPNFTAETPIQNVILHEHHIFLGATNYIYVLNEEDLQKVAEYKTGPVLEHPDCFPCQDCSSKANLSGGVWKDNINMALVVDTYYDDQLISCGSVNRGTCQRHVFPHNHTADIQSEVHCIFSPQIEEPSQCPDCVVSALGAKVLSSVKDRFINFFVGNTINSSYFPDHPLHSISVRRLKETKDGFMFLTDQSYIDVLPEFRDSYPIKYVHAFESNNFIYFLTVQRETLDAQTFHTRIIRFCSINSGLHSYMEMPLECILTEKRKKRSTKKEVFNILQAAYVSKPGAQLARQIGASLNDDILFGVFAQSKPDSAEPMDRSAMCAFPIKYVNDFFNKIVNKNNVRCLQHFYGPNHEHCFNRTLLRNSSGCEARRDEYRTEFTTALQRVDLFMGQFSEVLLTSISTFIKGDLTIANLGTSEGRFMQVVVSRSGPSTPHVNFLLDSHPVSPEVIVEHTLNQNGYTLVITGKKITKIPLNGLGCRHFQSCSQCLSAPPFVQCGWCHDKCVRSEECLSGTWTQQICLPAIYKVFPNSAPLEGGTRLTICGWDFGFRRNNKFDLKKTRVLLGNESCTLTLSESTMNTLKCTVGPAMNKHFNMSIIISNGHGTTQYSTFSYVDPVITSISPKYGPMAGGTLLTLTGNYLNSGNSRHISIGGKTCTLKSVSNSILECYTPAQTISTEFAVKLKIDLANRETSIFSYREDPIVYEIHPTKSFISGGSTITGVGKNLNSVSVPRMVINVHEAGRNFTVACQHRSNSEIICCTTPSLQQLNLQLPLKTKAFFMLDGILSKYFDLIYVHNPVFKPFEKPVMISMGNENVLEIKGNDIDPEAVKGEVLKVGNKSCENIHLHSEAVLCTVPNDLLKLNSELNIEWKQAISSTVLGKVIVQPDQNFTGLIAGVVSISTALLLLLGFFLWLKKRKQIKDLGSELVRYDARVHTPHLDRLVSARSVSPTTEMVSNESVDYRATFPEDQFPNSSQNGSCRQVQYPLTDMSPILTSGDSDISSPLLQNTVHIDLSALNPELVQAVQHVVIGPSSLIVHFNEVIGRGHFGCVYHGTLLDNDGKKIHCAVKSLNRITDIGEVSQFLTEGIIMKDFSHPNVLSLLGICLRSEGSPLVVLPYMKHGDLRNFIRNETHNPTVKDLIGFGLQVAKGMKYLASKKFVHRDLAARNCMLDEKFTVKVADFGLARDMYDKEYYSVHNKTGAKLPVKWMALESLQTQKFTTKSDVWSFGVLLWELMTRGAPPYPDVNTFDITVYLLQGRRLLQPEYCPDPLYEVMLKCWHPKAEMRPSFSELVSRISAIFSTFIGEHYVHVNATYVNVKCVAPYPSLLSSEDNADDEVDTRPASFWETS
Sequence of Platelet-derived growth factor receptor beta (P09619 whole entry): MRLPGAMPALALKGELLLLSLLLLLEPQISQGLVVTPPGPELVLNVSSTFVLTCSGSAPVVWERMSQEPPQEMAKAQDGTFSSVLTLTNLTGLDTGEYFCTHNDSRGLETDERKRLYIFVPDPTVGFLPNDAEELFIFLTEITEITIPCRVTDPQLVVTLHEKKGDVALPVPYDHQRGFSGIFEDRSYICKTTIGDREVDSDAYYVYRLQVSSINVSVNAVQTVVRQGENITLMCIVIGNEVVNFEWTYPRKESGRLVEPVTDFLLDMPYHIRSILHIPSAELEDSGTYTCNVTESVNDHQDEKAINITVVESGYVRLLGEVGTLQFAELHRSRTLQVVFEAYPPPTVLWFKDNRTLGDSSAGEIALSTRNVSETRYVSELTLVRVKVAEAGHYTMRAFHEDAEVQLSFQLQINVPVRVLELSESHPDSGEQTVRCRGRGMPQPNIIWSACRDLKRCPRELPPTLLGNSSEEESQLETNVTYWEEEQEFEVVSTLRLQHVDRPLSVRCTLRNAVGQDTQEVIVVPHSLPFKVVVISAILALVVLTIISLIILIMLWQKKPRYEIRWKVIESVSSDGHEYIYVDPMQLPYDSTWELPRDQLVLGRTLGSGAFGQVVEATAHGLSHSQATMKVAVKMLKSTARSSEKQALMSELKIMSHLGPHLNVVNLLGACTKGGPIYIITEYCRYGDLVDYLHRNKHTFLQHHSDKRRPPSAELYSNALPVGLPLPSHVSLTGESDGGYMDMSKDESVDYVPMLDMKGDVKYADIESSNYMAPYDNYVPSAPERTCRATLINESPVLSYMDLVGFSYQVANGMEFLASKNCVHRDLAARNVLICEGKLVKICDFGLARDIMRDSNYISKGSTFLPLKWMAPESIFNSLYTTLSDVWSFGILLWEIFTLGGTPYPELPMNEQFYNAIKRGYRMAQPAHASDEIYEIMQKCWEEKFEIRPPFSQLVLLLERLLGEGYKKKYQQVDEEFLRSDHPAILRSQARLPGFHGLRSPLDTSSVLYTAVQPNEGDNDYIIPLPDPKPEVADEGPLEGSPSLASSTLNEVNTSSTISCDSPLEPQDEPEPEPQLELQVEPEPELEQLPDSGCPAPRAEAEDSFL
Sequence of Vascular endothelial growth factor receptor 2 (P35968 whole entry): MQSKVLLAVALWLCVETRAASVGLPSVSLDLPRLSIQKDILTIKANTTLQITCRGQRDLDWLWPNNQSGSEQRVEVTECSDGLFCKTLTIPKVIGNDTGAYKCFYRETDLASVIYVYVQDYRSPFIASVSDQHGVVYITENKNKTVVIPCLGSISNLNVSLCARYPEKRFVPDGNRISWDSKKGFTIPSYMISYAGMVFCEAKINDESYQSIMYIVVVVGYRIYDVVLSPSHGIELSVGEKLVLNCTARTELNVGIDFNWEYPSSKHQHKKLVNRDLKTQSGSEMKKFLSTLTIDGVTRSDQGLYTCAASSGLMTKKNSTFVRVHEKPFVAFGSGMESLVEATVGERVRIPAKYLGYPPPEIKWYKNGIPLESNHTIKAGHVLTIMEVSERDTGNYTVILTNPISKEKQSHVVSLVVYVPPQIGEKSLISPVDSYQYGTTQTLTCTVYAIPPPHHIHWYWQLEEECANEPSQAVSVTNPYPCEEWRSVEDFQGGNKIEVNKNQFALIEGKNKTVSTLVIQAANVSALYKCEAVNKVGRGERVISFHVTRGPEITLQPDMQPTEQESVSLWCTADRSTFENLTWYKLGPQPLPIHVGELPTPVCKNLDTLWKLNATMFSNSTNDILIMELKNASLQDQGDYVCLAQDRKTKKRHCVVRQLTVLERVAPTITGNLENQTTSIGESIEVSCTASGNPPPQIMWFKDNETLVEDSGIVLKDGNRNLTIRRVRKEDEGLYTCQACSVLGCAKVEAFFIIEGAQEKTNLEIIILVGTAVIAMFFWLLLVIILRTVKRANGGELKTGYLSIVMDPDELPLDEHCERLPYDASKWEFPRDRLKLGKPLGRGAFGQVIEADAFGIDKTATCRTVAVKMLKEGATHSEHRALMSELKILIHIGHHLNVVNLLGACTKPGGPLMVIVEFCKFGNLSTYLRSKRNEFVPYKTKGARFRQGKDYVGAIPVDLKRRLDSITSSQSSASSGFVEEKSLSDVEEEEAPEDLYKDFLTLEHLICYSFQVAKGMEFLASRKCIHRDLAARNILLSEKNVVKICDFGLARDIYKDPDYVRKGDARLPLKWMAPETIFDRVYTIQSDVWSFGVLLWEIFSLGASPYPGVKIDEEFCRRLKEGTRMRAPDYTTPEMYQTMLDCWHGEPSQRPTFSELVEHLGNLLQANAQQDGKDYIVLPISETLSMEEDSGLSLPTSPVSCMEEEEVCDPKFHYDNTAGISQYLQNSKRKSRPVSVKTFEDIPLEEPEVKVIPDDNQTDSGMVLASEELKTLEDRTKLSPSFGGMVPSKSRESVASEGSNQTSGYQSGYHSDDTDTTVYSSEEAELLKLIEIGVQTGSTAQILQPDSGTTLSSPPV
Sequence of Epidermal growth factor receptor (P00533 whole entry): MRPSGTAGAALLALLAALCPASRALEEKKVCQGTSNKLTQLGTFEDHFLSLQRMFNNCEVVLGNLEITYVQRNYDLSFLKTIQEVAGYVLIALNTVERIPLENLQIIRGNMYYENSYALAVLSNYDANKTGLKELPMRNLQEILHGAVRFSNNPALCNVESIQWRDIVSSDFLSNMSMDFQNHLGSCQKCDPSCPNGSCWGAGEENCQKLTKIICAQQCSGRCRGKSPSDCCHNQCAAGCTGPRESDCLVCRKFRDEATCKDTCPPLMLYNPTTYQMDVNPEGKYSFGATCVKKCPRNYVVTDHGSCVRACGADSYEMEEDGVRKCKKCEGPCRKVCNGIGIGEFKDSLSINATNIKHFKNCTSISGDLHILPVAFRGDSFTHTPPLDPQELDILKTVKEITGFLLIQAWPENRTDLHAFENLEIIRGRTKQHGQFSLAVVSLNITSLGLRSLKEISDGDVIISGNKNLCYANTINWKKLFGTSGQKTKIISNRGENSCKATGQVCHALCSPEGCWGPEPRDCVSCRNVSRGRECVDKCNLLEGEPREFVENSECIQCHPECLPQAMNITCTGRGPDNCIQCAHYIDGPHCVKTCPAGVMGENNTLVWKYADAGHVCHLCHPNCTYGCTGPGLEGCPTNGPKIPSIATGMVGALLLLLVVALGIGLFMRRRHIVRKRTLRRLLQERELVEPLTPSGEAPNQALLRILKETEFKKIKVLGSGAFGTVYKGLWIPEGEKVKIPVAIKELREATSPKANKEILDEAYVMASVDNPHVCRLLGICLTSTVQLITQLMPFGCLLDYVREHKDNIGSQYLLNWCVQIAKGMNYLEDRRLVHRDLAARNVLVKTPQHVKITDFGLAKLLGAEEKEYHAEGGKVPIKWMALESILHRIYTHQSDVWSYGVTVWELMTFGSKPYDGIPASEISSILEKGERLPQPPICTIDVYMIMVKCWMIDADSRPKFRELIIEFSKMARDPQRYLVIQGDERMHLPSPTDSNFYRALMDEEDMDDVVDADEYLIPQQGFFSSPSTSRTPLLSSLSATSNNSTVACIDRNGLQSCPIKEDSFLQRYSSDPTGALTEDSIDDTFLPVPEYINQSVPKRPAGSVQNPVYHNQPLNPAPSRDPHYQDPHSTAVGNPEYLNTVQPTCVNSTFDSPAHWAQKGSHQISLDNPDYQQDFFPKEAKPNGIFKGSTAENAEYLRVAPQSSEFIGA

| IC50 (cells [1]) [nM] | IC50 (HT-29 [2]) [nM] | IC50 (cells [3]) [nM] | IC50 [4] [nM] | IC50 [6] [nM] | IC50 [7] [nM] | IC50 [8] [nM] | IC50 [10] [nM] | IC50 [11] [nM] | SMILES | IC50 [5] [nM] | IC50 (A549) [nM] | Ratio IC50 [9] | Ratio IC50 (HT-29 [12]) | Ratio IC50 (U-87 MG) |
| --- | --- | --- | --- | --- | --- | --- | --- | --- | --- | --- | --- | --- | --- | --- |
| 480 | 520 | 170 |  |  |  |  |  |  | COc1cc2c(Oc3ccc(NC(=O)c4c(Cl)c5ccccc5n(-c5ccc(C)cc5)c4=O)cc3F)ccnc2cc1OCCCN1CCCCC1 |  |  |  |  |  |
| 120 | 530 | 150 |  |  |  |  |  |  | COc1cc2c(Oc3ccc(NC(=O)c4c(Cl)c5ccccc5n(-c5ccccc5OC)c4=O)cc3F)ccnc2cc1OCCCN1CCN(C)CC1 |  |  |  |  |  |
| 1400 | 1500 | 360 |  |  |  |  |  |  | COc1cc2c(Oc3ccc(NC(=O)c4c(Cl)c5ccccc5n(-c5ccccc5OC(F)(F)F)c4=O)cc3F)ccnc2cc1OCCCN1CCCC1 |  |  |  |  |  |
| 1260 | 1400 | 1200 |  |  |  |  |  |  | COc1cc2c(Oc3ccc(NC(=O)c4c(Cl)c5ccccc5n(-c5ccccc5OC)c4=O)cc3F)ccnc2cc1OCCCN1CCOCC1 |  |  |  |  |  |
| 460 | 350 | 150 | 6.84 |  |  |  |  |  | COc1cc2c(Oc3ccc(NC(=O)c4c(Cl)c5ccccc5n(-c5ccccc5)c4=O)cc3F)ccnc2cc1OCCCN1CCC(C)CC1 | 1420 | 390 |  |  |  |
| 280 | 41600 | 140 | 18.4 |  |  |  |  |  | COc1cc2c(Oc3ccc(NC(=O)c4c(Cl)c5ccccc5n(-c5ccccc5)c4=O)cc3F)ccnc2cc1OCCCN1CCCCC1 | 1300 | 510 |  |  |  |
| 420 | 12600 | 580 |  |  |  |  |  |  | COc1cc2c(Oc3ccc(NC(=O)c4c(Cl)c5ccccc5n(-c5ccccc5OC)c4=O)cc3F)ccnc2cc1OCCCN1CCCCC1 |  |  |  |  |  |
| 160 | 68 | 31 | 1.21 | 543 | > 100000 | 363 | 2.15 | 526 | COc1cc2c(Oc3ccc(NC(=O)c4c(Cl)c5ccccc5n(-c5ccc(F)cc5)c4=O)cc3F)ccnc2cc1OCCCN1CCN(C)CC1 | 520 | 110 | 6.1 | 2.4 | 2.1 |
| 310 | 570 | 380 |  |  |  |  |  |  | COc1cc2c(Oc3ccc(NC(=O)c4c(Cl)c5ccccc5n(-c5ccccc5OC(F)(F)F)c4=O)cc3F)ccnc2cc1OCCCN1CCC(C)CC1 |  |  |  |  |  |
| 900 | 480 | 230 |  |  |  |  |  |  | COc1cc2c(Oc3ccc(NC(=O)c4c(Cl)c5ccccc5n(-c5ccc(C)cc5)c4=O)cc3F)ccnc2cc1OCCCN1CCCC1 | 3240 | 230 |  |  |  |
| 120 | 190 | 180 |  |  |  |  |  |  | COc1cc2c(Oc3ccc(NC(=O)c4c(Cl)c5ccccc5n(-c5ccc(C)cc5)c4=O)cc3F)ccnc2cc1OCCCN1CCC(C)CC1 | 3200 | 350 |  |  |  |
| 410 | 170 | 270 |  |  |  |  |  |  | COc1cc2c(Oc3ccc(NC(=O)c4c(Cl)c5ccccc5n(-c5ccccc5F)c4=O)cc3F)ccnc2cc1OCCCN1CCN(C)CC1 | 1320 | 290 |  |  |  |
| 1200 | 300 | 620 |  |  |  |  |  |  | COc1cc2c(Oc3ccc(NC(=O)c4c(Cl)c5ccccc5n(-c5cc(C)cc(C)c5)c4=O)cc3F)ccnc2cc1OCCCN1CCCC1 |  |  |  |  |  |
| 310 | 460 | 260 |  |  |  |  |  |  | COc1cc2c(Oc3ccc(NC(=O)c4c(Cl)c5ccccc5n(-c5ccccc5)c4=O)cc3F)ccnc2cc1OCCCN1CCOCC1 | 4800 | 930 |  |  |  |
| 160 | 110 | 89 | 3.26 |  |  |  |  |  | COc1cc2c(Oc3ccc(NC(=O)c4c(Cl)c5ccccc5n(-c5ccc(F)cc5)c4=O)cc3F)ccnc2cc1OCCCN1CCC(C)CC1 | 1920 | 990 |  |  |  |
| 780 | 390 | 850 |  |  |  |  |  |  | COc1cc2c(Oc3ccc(NC(=O)c4c(Cl)c5ccccc5n(-c5ccc(C)cc5)c4=O)cc3F)ccnc2cc1OCCCN1CCOCC1 | 5160 | 830 |  |  |  |
| 310 | 290 | 110 | 12.2 |  |  |  |  |  | COc1cc2c(Oc3ccc(NC(=O)c4c(Cl)c5ccccc5n(-c5ccc(F)cc5)c4=O)cc3F)ccnc2cc1OCCCN1CCCCC1 | 1600 | 160 |  |  |  |
| 120 | 150 | 120 |  |  |  |  |  |  | COc1cc2c(Oc3ccc(NC(=O)c4c(Cl)c5ccccc5n(-c5ccc(C)cc5)c4=O)cc3F)ccnc2cc1OCCCN1CCN(C)CC1 | 1060 | 310 |  |  |  |
| 210 | 140 | 61 | 5.32 |  |  |  |  |  | COc1cc2c(Oc3ccc(NC(=O)c4c(Cl)c5ccccc5n(-c5ccc(F)cc5)c4=O)cc3F)ccnc2cc1OCCCN1CCOCC1 | 8500 | 110 |  |  |  |
| 570 | 150 | 120 | 12.5 |  |  |  |  |  | COc1cc2c(Oc3ccc(NC(=O)c4c(Cl)c5ccccc5n(-c5ccc(F)cc5)c4=O)cc3F)ccnc2cc1OCCCN1CCCC1 | 640 | 720 |  |  |  |
| 740 | 1210 | 580 |  |  |  |  |  |  | COc1cc2c(Oc3ccc(NC(=O)c4c(Cl)c5ccccc5n(-c5ccccc5F)c4=O)cc3F)ccnc2cc1OCCCN1CCOCC1 |  |  |  |  |  |
| 120 | 91 | 61 | 1.75 |  |  |  |  |  | COc1cc2c(Oc3ccc(NC(=O)c4c(Cl)c5ccccc5n(-c5ccccc5)c4=O)cc3F)ccnc2cc1OCCCN1CCN(C)CC1 |  |  |  |  |  |
| 210 | 390 | 210 |  |  |  |  |  |  | COc1cc2c(Oc3ccc(NC(=O)c4c(Cl)c5ccccc5n(-c5ccccc5)c4=O)cc3F)ccnc2cc1OCCCN1CCCC1 | 1600 | 810 |  |  |  |
